Literature values as cited in patent publication US9433581B2, “Poly(vinyl benzoate) nanoparticles for molecular delivery” (University of South Florida, priority 2010, dated 2016).

Conditions: octanol/water, reported in the literature

Molecule: CCN(CC)c1ccc2cc(-c3nc4ccccc4s3)c(=O)oc2c1 [Coumarin-6, coumarin-6]
- Log P: −3.45

Molecule: 5(6)-carboxyfluorescein
- Log P: 5.43
